From patent US9271953B2, “Methods for correction of organ dysfunction” (priority 2013, dated 2016)
“Also recorded” adds a separate entry of the source.

Legend:
[1] = in vivo; cited from earlier work
[2] = system: post-ganglionic nicotinic acetylcholine receptors; assay: Oral single agents in patients with damaged pre-ganglionic vagus nerve: organ function; format: in vivo, human
From the text: In one embodiment of the invention, transdermal (topical) application of nicotine, applied near the lower right-hand corner of the abdomen stimulates the post-ganglionic nicotinic acetylcholinergic receptor controlling the ileocecal valve, for example, allowing the valve to open. Oral nicotine, however, is ineffective at stimulating the post-ganglionic nicotinic acetylcholinergic nerves in the abdomen, yet it exposes the patient to the direct (and negative) effect on the cerebellum.^38 In numerous patients tested, oral physostigmine or Huperzine A (both inhibitors of acetylcholinesterase, and thus indirect stimulators of both nicotinic and muscarinic acetylcholine receptors) were not effective in stimulating organ function when the pre-ganglionic portion of the vagus nerve was damaged. It is clear that in addition to inhibitors of acetylcholinesterase, other ingredients are necessary to stimulate organ function in this patient population. […] It was only through extensive testing that the inventor was able to discover the proper range of oral ingredients which were effective in stimulating these post-ganglionic nerves.

[3] = system: post-ganglionic nicotinic acetylcholine receptors
From the text: Nicotine is a powerful nicotinic agonist found in the leaves of the tobacco plant (Nicotiana tabacum).

[4] = system: patients with connective tissue disorders and/or autonomic dysfunction; assay: Patient studies / case studies with the oral compound; format: in vivo, human; conditions: patients with organ malfunction secondary to poor vagus nerve function
Protocol: The composition and method of use of the present invention is also unique because it corrects for these numerous causes of dysfunction and includes ingredients in the quantities and form required to work around the genetic, vascular, and/or co-morbid components involved. IBS/gastroparesis/constipation was initially targeted. In patient studies, a response to medication (a bowel movement) occurred within 2-12 hours, without exception. Patients were identified with a mix of co-morbid conditions including chronic fatigue syndrome, fibromyalgia, joint hypermobility and autonomic dysfunction.
The present composition was provided to a number of patients having certain diagnosed diseases, as summarized in Table 1 above and suffering from a variety of medical conditions or symptoms associated with those diseases, again, as summarized above.

IGF-1 = IGF-1 levels in Patient 1; format: in vivo, human; conditions: 2 units/day growth hormone, before compound
From the text: Not intending to be bound by theory, and in no way a limitation of the present invention, the invention (excluding nicotine) can be used to stimulate production of human growth hormone, often found to be low in chronic pain syndromes, including disorders of connective tissue, “POTS”, “Hyperadrenergic POTS” and fibromyalgia. Rather than treating the patients with exogenous growth hormone, the present invention instead treats the source of the low growth hormone levels (as measured via IGF-1). Growth hormone levels can then return to normal and dysregulation of the hypothalamic-pituitary-adrenal axis is normalized. […]
Patient 1: Diagnoses: joint hypermobility (judged by the Beighton Scale), autonomic dysfunction (patient failed the Tilt Table Test of autonomic function) and visual and auditory hallucinations, hypothermia. […] Their liver enzymes and kidney function began to show abnormal readings, and pain at the site of the ileocecal valve began to occur. […]

**Q.** Which lethal dosage [1] does the source give for `CN1CCCC1c1cccnc1` (centres unmarked) [nicotine, Nicotine] here?
**A.** 60 mg

**Q.** What about the “opening the ileocecal valve, arresting gastroparesis/chronic constipation” value ([2]; oral doses of nicotine) of the same molecule?
**A.** ineffective

**Q.** And the “stimulating the post-ganglionic nicotinic acetylcholinergic nerves/receptors (organ function)” value ([2]; oral nicotine)?
**A.** ineffective; also recorded: not effective

**Q.** And the skin side effects ([3]; Patient 1, 7 g transdermal nicotine)?
**A.** intractable itching, redness, and skin welting

**Q.** And the ileocecal valve opening ([3]; Patient 1, 7 g transdermal nicotine near the ileocecal valve)?
**A.** opened the valve overnight

**Q.** What about the “reversal of chronic constipation, gastroparesis, dysmotility, ileocecal valve and Sphincter of Oddi dysfunction: time” value ([3]; transdermal 3-21 mg, lower right-hand quadrant of abdomen) of the same molecule?
**A.** usually within hours

**Q.** What about the “opening of the ileocecal valve” value ([3]; transdermal 3-21 mg, patients with poor vagus nerve function, valve not physically damaged) of the same molecule?
**A.** never failed to open the ileocecal valve

**Q.** For `CC(=O)O[C@H](CC(=O)[O-])C[N+](C)(C)C` [Acetyl-L-Carnitine], which “organ function when Acetyl-L-Carnitine was added to the compound” value [4] is on record?
**A.** invariably achieved better organ function

**Q.** For `C/C=C1\[C@H]2C=C(C)C[C@]1(N)c1ccc(=O)[nH]c1C2` [Huperzine A], which response to medication ([2]; Patient 2, prescribed for mental fatigue) is on record?
**A.** no response

**Q.** And the “stimulating organ function when the pre-ganglionic portion of the vagus nerve was damaged” value ([2]; oral, numerous patients tested)?
**A.** not effective

**Q.** Which “IGF-1 levels raised to the upper normal range” value (IGF-1) does the source give for “growth hormone: exogenous growth hormone, 2 units/day” here?
**A.** which it did
